Data from the CheMixHub viscosity set.

Assay: xn = mol fraction of the nth substance listed

O=S1(=O)CCCC1 + OCCOCCOCCO
303.15 K, 101 kPa
Conditions | viscosity [mPa·s]
x1 = 0.0435 | 27.75
x1 = 0.0985 | 25.88
x1 = 0.2083 | 22.54
x1 = 0.2999 | 20.02
x1 = 0.3966 | 17.63
x1 = 0.4473 | 16.49
x1 = 0.4985 | 15.45
x1 = 0.5498 | 14.47
x1 = 0.5855 | 13.85
x1 = 0.6913 | 12.24
x1 = 0.8065 | 10.9
x1 = 0.8984 | 10.18
x1 = 0.9458 | 10.08

CCCCn1cc[n+](C)c1.F[B-](F)(F)F + CC#N
Conditions | viscosity [mPa·s]
298.15 K, 101 kPa, x2 = 0.0956 | 79.7

CCCCn1cc[n+](C)c1.F[B-](F)(F)F + CN(C)C=O
101.33 kPa
Conditions | viscosity [mPa·s]
293.15 K, x1 = 0.24 | 8.99
293.15 K, x1 = 0.83 | 76.67
298.15 K, x1 = 0.335 | 6.371
298.15 K, x1 = 0.34 | 8.92
298.15 K, x1 = 0.3986 | 7.783
298.15 K, x1 = 0.8976 | 78.41
298.15 K, x1 = 0.94 | 88.43
303.15 K, x1 = 0.43 | 8.05
303.15 K, x1 = 0.94 | 74.19
308.15 K, x1 = 0.55 | 9.58

NCCCO + CC(C)CO
293.15 K, 101 kPa
Conditions | viscosity [mPa·s]
x1 = 0.501 | 13.95
x1 = 0.7008 | 21.85

Cc1ccc(O)cc1 + CCCCNCCCC
298.16 K, 101 kPa
Conditions | viscosity [mPa·s]
x1 = 0.4487 | 3.678
x1 = 0.4877 | 5.428
x1 = 0.5489 | 7.609
x1 = 0.5951 | 11.91
x1 = 0.6192 | 13.62
x1 = 0.6457 | 16.41
x1 = 0.6924 | 28.49
x1 = 0.7098 | 33.96
x1 = 0.7329 | 43.07
x1 = 0.7632 | 61.06
x1 = 0.7959 | 79.23
x1 = 0.833 | 89.65
x1 = 0.8754 | 78.76
x1 = 0.902 | 60.59
x1 = 0.9421 | 33.43
x2 = 0.001967 | 12.1
x2 = 0.003431 | 17.88
x2 = 0.015 | 18.21

Cc1cccc(C)c1 + CCC(C)O
308.15 K, 101 kPa
Conditions | viscosity [mPa·s]
x2 = 0.0658 | 0.532
x2 = 0.1295 | 0.544
x2 = 0.2112 | 0.563
x2 = 0.3085 | 0.592
x2 = 0.3828 | 0.622
x2 = 0.4366 | 0.653
x2 = 0.5058 | 0.696
x2 = 0.6047 | 0.792
x2 = 0.698 | 0.919
x2 = 0.8006 | 1.071
x2 = 0.9493 | 1.724

Nc1ccccc1Cl + CC(C)CO
viscosity [mPa·s], 101 kPa
Conditions | x1 = 0.0805 | x1 = 0.1856 | x1 = 0.2856 | x1 = 0.3751 | x1 = 0.4789 | x1 = 0.5761 | x1 = 0.6805 | x1 = 0.7859 | x1 = 0.8952
303.15 K | 2.81 | 3 | 3.16 | 3.29 | 3.42 | 3.53 | 3.63 | 3.71 | 3.78
308.15 K | 2.46 | 2.66 | 2.81 | 2.92 | 3.05 | 3.15 | 3.25 | 3.33 | 3.39
313.15 K | 2.16 | 2.35 | 2.5 | 2.61 | 2.73 | 2.83 | 2.93 | 2.99 | 3.01
318.15 K | 1.9 | 2.08 | 2.23 | 2.33 | 2.45 | 2.55 | 2.65 | 2.73 | 2.78
